The results in this text go back to a melting point compilation (Tetko et al.).

Molecules are shown by their SMILES.

One may read the melting point as the temperature, or range, at which the solid turns liquid. `Brc1ccccc1Oc1cccnn1` displayed a melting point of 109 to 111 °C. For `CCOC(=O)C1CCCN1S(N)(=O)=O` (stereo not given) the value was 123 to 125 °C; for `Cn1c(NN)nc2ccccc2c1=O`, 150 to 152 °C; for `N#CC(=Cc1ccco1)C(=O)O`, 227 to 229 °C.

In the case of `Cc1oc(-c2cccs2)nc1CC(=O)O`, the melting point is 185 to 187 °C. As for `CCC(C)C(NC(N)=O)C(=O)O` (stereo not given), the melting point lay within 205 to 207 °C. For `CCC(CC)NS(=O)(=O)c1ccc(Cl)nc1` the value was 91 to 93 °C; for `COC(=O)NC1(C(=O)O)CCCC1`, 131 to 133 °C; for `CC(=O)Nc1cccc(N=C=S)c1`, 154 to 156 °C. As for `CCOc1ccccc1CCC(=O)O`, the figure is 70 to 72 °C; as for `COC(=O)COc1cc(C(=O)O)ccc1OC`, 144 to 146 °C; as for `CC(=O)c1ccc2[nH]c(=O)[nH]c2c1`, 264 to 266 °C. As for `Nc1cccc(CN2CCOCC2)n1`, the figure is 129 to 131 °C; as for `CCn1nnnc1S`, 18 to 20 °C; as for `N#CC1=C(C(=O)O)CCC1`, 108 to 110 °C. The compound `NS(=O)(=O)c1ccc(F)c(C(=O)O)c1F` showed a melting point of 139 to 141 °C. As to `Sc1nnc(-c2ccccc2Br)o1`, the melting point lay in the range of 200 to 202 °C. For `Cc1cccn2c(C=O)cnc12` the value was 83 to 85 °C; for `CCN(CC)S(=O)(=O)c1ccc(N2CCN(C)CC2)c(N)c1`, 148 to 152 °C; for `Nc1c(Cl)ccc2nsnc12`, 89 to 91 °C. As for `O=C(CCC1CCCCC1)Nc1ccc(C(=O)O)c(O)c1`, the figure is 209 to 211 °C; as for `O=Cc1cccnc1Cl`, 50 to 54 °C. For `Cc1ccc(-n2nc(C(=O)O)c3c2CCC3)cc1` the value was 224 to 226 °C; for `CC(C)(C)OC(=O)Nc1ccc(N)cn1`, 157 to 159 °C. Regarding `CN(C)S(=O)(=O)c1ccc(C(=O)O)cc1`, the melting point lay within 249 to 251 °C. As for `COCCNc1ccc([N+](=O)[O-])cc1C(=O)O`, the figure is 204 to 206 °C; as for `Nc1ccc(C2CC2)nn1`, 135 to 137 °C; as for `COc1cccc(Nc2nnc(SCC(=O)O)s2)c1`, 135 to 137 °C. For `O=C(O)c1cc(COc2ccc(Cl)cc2Cl)on1` the value was 151 to 153 °C; for `Nc1cccc(Sc2ccc(Cl)cc2)c1`, 58 to 60 °C; for `O=C(O)c1cc(Br)ccc1F`, 179 to 182 °C. With `Nc1nc(-c2ccc(N3CCCC3=O)cc2)cs1`, the melting point is 283 to 285 °C. As for `O=C(Nc1ccc(F)cc1)NC1CCNCC1`, the figure is 183 to 185 °C; as for `NS(=O)(=O)Cc1ccc(CO)cc1`, 118 to 120 °C.

Consider `NNS(=O)(=O)Cc1ccc(F)cc1`, for which the melting point lay in the range of 144 to 146 °C. For `Nc1noc(-c2ccccc2)n1`, the melting point lay within 164 to 166 °C. Compound `Oc1ccc(Nc2nnns2)cc1` returned a melting point of 159 to 161 °C.

As for `NC(=O)CNS(=O)(=O)c1cccc(C(=O)O)c1`, the melting point is 259 to 261 °C.

Compound `CCc1c(N)cnn1C` had a melting point of 49 to 51 °C. `COC(=O)c1n[nH]c(N)n1` displayed a melting point of 218 to 222 °C. The compound `Cc1occc1C(=O)NCC(=O)O` showed a melting point of 143 to 145 °C.

The compound `CS(=O)(=O)Cc1cc(F)ccc1N` registered a melting point of 126 to 128 °C.

In turn, `Cc1nc(N)ccc1I` gave a melting point of 99 to 100 °C. As for `CC(C)(C)NCCS(C)(=O)=O`, the figure is 39 to 41 °C; as for `NC(=S)/C(=C/c1ccccc1O)C(=O)O`, 243 to 245 °C. As for `CC(O)C(NC(=O)C1CCCC1)C(=O)O` (stereo not given), the figure is 145 to 147 °C; as for `Cc1ncsc1-c1cnco1`, 96 to 98 °C; as for `COC(=O)C=Cc1ccc([N+](=O)[O-])cc1`, 161 to 163 °C. For `CCCCCC(C)CNC(=S)NN` (stereo not given) the value was 48 to 50 °C. `Cc1cc(C)c(C(=O)CCCC(=O)O)c(C)c1`: the melting point lay within 75 to 77 °C. As for `COC(=O)c1ccc(OCCBr)c(Cl)c1`, the figure is 72 to 74 °C; as for `Nc1cccc(S(=O)(=O)Nc2cn[nH]c2)c1`, 194 to 196 °C; as for `CCS(=O)(=O)c1ccc(Cl)cc1N`, 85 to 87 °C.

The compound `O=C(O)c1cc(N/N=C/c2ccccc2Br)ccc1Cl` showed a melting point of 180 to 182 °C. As for `COCc1ccccc1C(=O)O`, the figure is 94 to 96 °C; as for `CC(=O)c1cnn(-c2ccccn2)c1C`, 75 to 77 °C; as for `O=Cc1[nH]nnc1-c1ccccc1`, 169 to 171 °C. As for `CCC(CC)(Cc1nc2ccccc2s1)C(=O)O`, the figure is 143 to 145 °C. As for `O=C(O)CSc1ccc(Cl)cc1[N+](=O)[O-]`, the figure is 159 to 161 °C; as for `Nc1cccc(-c2n[nH]c3c2CCC3)c1`, 168 to 170 °C. The compound `CC(=O)Oc1cccc(C(=O)O)c1` registered a melting point of 131 to 134 °C.

On to `CCCCC1NC(=O)NC1=O` (stereo not given), for which the melting point is 139 to 141 °C. As for `NC(=O)CO`, the figure is 124 to 126 °C. As for `CN(C)c1ccc(C=O)s1`, the figure is 65 to 67 °C; as for `C=CC(=O)Nc1ccc(N(C)C(C)C)c(F)c1`, 81 to 83 °C. As for `Cc1[nH]c2ccc(CN)cc2c1C`, the figure is 149 to 151 °C; as for `COC(=O)c1ccc2c(c1)NCC(=O)N2`, 252 to 254 °C. `Cc1ccc(CC(=O)O)o1` returned a melting point of 56 to 58 °C.

Turning to `CC(C)(C(=O)O)c1ccc2ccccc2c1`, the melting point was 146 to 148 °C. For `O=C(CCl)Nc1c(Cl)cccc1Cl` the value was 178 to 180 °C; for `Cc1ccc(C(=O)O)cc1NS(=O)(=O)c1ccc(F)cc1`, 234 to 236 °C; for `O=c1[nH]nc(-c2cccs2)o1`, 116 to 118 °C. `O=C(NCCO)c1ccc(Cl)nn1` had a melting point of 119 to 121 °C. As for `Cc1nc(COc2ccc(Cl)cc2)sc1C(=O)O`, the figure is 239 to 241 °C; as for `O=C(O)C1CCN(c2cccc(Cl)c2)C1=O` (stereo not given), 113 to 115 °C; as for `COC(=O)C1CCN(C(=O)c2ccc(Cl)c(Cl)c2)CC1`, 103 to 105 °C.

Turning to `Cc1nc(C)c(C(=O)O)o1`, the melting point fell in the range of 219 to 221 °C. For `Cc1ccc(O)c(C(=O)Nc2nc(CC(=O)O)cs2)c1` the value was 271 to 273 °C. For `O=C(O)CSCc1ccc(Br)cc1F` the value was 57 to 59 °C; for `CC(C)c1ccc(C(=O)O)c(C(C)C)c1`, 99 to 101 °C. As for `Cc1nn(C)cc1C=O`, the figure is 46 to 48 °C.

Take `O=C(Nc1ccc(Br)cc1)C1CCNCC1`: the melting point was in the range of 209 to 211 °C.

`CC1(C)NC(=O)N(CCCC(=O)O)C1=O` showed a melting point of 97 to 99 °C.

For the compound `CCOc1ccccc1OCC(=O)O`, the melting point was in the range of 44 to 46 °C. For `CC(C)(C)NC(=O)CN1CCN(CC(N)=S)CC1`, the melting point lay within 148 to 152 °C.

The compound `O=C(O)c1ccc(F)cc1I` displayed a melting point of 144 to 146 °C. For `CC(=O)Nc1ccc(N=C=S)cc1` the value was 199 to 201 °C.

In turn, `O=C(O)c1ccc2c(=O)n3c(nc2c1)CCC3` showed a melting point of 354 to 356 °C. As for `CC(O)CCNc1cc2nc[nH]c(=O)c2cc1N` (stereo not given), the figure is 209 to 211 °C.

Regarding `CC(=O)Nc1nc(C)c(S(=O)(=O)Cl)s1`, the melting point lay in the range of 158 to 160 °C. For `Cc1nc(CC(N)=NO)no1` the value was 142 to 144 °C; for `CC(=O)c1ccc(C(F)(F)F)[nH]c1=O`, 87 to 89 °C. As for `Clc1ccc(Cn2cncn2)cn1`, the figure is 61 to 63 °C; as for `CC(C)(C)c1cc(NC(=O)CCl)on1`, 95 to 97 °C. For `Cn1c(=O)c2cc(N)cnc2n(C)c1=O` the value was 219 to 221 °C; for `CS(=O)(=O)N1CCCC1C#N` (stereo not given), 62 to 64 °C. `Nc1cccc(C(=O)NCc2ccccc2F)c1` registered a melting point of 204 to 206 °C. As for `O=C(CSc1ccccc1C(=O)O)NCC1CCCCC1`, the figure is 118 to 120 °C; as for `O=C(O)Cc1c[nH]c2cc(F)ccc12`, 159 to 161 °C; as for `CC(C1CC1)N(C)C(=O)c1ccc[nH]c1=O` (stereo not given), 187 to 189 °C.

On to `N#Cc1ccc(Cl)cc1NCc1ccccn1`, for which the melting point was 100 to 102 °C. `Cc1cc(C)c(C(=O)CCl)c(C)c1C(=O)CCl` came in with a melting point of 136 to 138 °C. For `O=C(O)Cc1csc(-c2cccc(Br)c2)n1` the value was 106 to 110 °C; for `NS(=O)(=O)c1ccc2c(c1)CC(C(=O)O)CO2` (stereo not given), 213 to 215 °C; for `CC1CCCC(C)N1C(=O)COc1ccc(C(=O)O)cc1` (stereo not given), 205 to 215 °C. As for `Nc1ccn(Cc2ccsc2)n1`, the figure is 43 to 45 °C; as for `NC(=O)c1ccc(S(=O)(=O)Cl)cc1`, 188 to 190 °C. On to `COc1cc(SC)ccc1C(=O)O`, for which the melting point lay in the range of 111 to 114 °C. For the compound `O=C(O)c1ccc(=O)n(-c2cccc(Br)c2)c1`, the melting point was in the range of 279 to 281 °C. For `NC1CCCCC1O` (stereo not given) the value was 162 to 164 °C; for `CC(=O)c1cnc2ccsc2c1`, 132 to 134 °C. As for `COc1ccc(CC(=O)NO)cc1`, the figure is 159 to 161 °C. For `Cc1cc(C(=O)O)c(O)c(S(N)(=O)=O)c1` the value was 218 to 220 °C. Compound `O=C(O)C1CCCN(C(=O)C2Cc3cc(Cl)ccc3O2)C1` (stereo not given) came in with a melting point of 159 to 161 °C.

`N#Cc1cc2c(nc1Cl)CCC2` returned a melting point of 126 to 128 °C. As for `O=C1CC(c2ccc(Cl)cc2)CC(=O)N1`, the figure is 152 to 154 °C; as for `COCCn1c(C(=O)O)cc2ccccc21`, 139 to 141 °C. As for `N#Cc1cccc(I)c1N`, the figure is 115 to 117 °C; as for `COc1ccc(CN2CCNCC2)cc1OC`, 27 to 40 °C. As for `COc1ccc(NS(=O)(=O)c2ccc(N)cc2)c(OC)c1`, the figure is 119 to 121 °C; as for `CNS(=O)(=O)Cc1ccc(CN)cc1`, 140 to 142 °C; as for `NC(=S)c1ccc(NC(=O)C2CC2)cc1`, 179 to 181 °C. As to `O=C(CN1CCNCC1)NC1CCCCC1`, the melting point was in the range of 99 to 101 °C.

For `O=C(O)C1(c2ccc3c(c2)OCO3)CCCCC1`, the melting point lay within 176 to 178 °C. For `COC(=O)c1cc(S(=O)(=O)N2CCCC2)ccc1O` the value was 160 to 162 °C.
